Results reported in patent US20230357179A1, “RAF KINASE INHIBITORS AND METHODS OF USE THEREOF” (Deciphera Pharmaceuticals, LLC, priority 2021, published 2023).
pIC50: −log10 of the molar value.

How the values were obtained:
[1] = test system: A375 cells; experiment: A375 cell proliferation assay (1), resazurin, 96-well; assay type: cell-based; settings: Homo sapiens, A-375, inhibition of cell proliferation
Method in brief: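 Viability was read by resazurin fluorescence at 540 nm excitation and 600 nm emission, using a 440 μM solution added for 5–6 h at the end of culture. IC50 came from the curve fit.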

[2] = target: T1, A-Raf kinase (Homo sapiens, UniProt P10398, Y301D/Y302D); experiment: Biochemical assay for A-Raf.1 (coupled pyruvate kinase/lactate dehydrogenase); settings: read-out: ARAF.1 IC50
T1 construct: purchased Sigma
Method in brief: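 A-Raf (5.55 nM) phosphorylating 30.1 nM MEK with 1 mM ATP was monitored by pyruvate kinase/lactate dehydrogenase-coupled NADH oxidation at 340 nm for 6 h at 30° C, in pH 7.5 Tris buffer with 15 mM MgCl2, 1% DMSO. Rates from 4–5 h gave percent inhibition; IC50 by four-parameter fit.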

[3] = test system: H2405 cells; experiment: H2405 cell proliferation assay (1), resazurin, 96-well; assay type: cell-based; settings: Homo sapiens, NCI-H2405, inhibition of cell proliferation
Description: H2405 Cell Proliferation Assay (1)
H2405 cells (catalog #CRL-5944) are obtained from the American Type Culture Collect (ATTC, Manassas, VA). Briefly, cells were grown in RPMI 1640 supplemented with 5% characterized fetal bovine serum (Invitrogen, Carlsbad, CA) and 1% Penicillin/Streptomycin/L-Glutamine at 37° C., 5% CO2, and 95% humidity. Cells are expanded until reaching 70-95% confluency at which point they are subcultured or harvested for assay use. A serial dilution of test compound is dispensed into a 96-well black clear bottom plate in triplicate. Three thousand cells are added per well in 200 μL complete growth medium in the 96-well plate. Plates are incubated for 67-72 hours at 37° C., 5% CO2, and 95% humidity. At the end of the incubation, 40 μL of a 440 μM solution of resazurin (Sigma, St. Louis, MO) in PBS is added to each well of the plate and plates are incubated for an additional 5-6 hours at 37° C., 5% CO2, and 95% humidity. Plates are read on a Synergy2 or equivalent reader (Biotek, Winooski VT) using an excitation of 540 nm and an emission of 600 nm. Data is analyzed using Prism software (GraphPad, San Diego, CA) to calculate IC50 values.

[4] = target: T2, C-Raf kinase (Homo sapiens, UniProt P04049, Y340D/Y341D); experiment: Biochemical assay for C-Raf.1 (coupled pyruvate kinase/lactate dehydrogenase); settings: read-out: CRAF.1 IC50
T2 construct: Y340D,; GST (N); purchased Sigma
Method in brief: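 C-Raf (0.43 nM) with MEK 30.1 nM and 1 mM ATP in Tris pH 7.5/MgCl2 buffer, activity coupled via PK/LDH to NADH oxidation (A340), 6 h at 30° C. Rates from 4–5 h window converted to % inhibition versus controls; IC50 by four-parameter fit, 1% DMSO.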

T1 sequence (P10398 with tags, fused parts or gaps Y301D/Y302D): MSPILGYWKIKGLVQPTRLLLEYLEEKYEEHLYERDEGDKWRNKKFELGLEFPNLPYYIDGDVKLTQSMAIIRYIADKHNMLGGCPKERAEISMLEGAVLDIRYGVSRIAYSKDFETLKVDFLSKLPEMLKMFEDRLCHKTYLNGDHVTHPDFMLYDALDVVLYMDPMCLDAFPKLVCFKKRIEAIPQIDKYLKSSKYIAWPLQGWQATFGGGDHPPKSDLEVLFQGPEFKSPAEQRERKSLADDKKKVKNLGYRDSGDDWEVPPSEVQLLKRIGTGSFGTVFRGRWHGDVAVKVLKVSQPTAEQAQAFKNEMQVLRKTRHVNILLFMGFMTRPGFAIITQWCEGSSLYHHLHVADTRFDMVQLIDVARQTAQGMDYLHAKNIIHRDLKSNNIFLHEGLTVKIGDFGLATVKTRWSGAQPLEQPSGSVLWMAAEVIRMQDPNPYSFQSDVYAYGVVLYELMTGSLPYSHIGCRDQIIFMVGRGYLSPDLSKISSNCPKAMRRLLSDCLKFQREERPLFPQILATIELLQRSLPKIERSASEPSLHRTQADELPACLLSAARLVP
T2 sequence (P04049 307-648 Y340D/Y341D): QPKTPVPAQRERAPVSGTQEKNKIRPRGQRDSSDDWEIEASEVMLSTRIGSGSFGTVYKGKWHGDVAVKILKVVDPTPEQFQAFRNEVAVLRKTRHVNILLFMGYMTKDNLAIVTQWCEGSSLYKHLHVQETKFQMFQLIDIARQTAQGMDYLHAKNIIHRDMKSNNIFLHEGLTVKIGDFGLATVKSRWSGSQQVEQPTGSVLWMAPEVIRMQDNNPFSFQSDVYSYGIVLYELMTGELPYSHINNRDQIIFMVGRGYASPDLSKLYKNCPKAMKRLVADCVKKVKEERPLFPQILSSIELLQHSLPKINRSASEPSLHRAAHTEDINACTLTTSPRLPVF

pIC50 [1]	pIC50 [2]	pIC50 [3]	pIC50 [4]	Structure (SMILES)
5.00 to 6.00	< 6.00	5.00 to 6.00	≥ 7.00	Cc1cc(F)c(NC(=O)NCCC(C)(C)F)cc1-c1cccc(-c2ccnc3[nH]ncc23)c1 [Example 100]
5.00 to 6.00	< 6.00	5.00 to 6.00	≥ 7.00	COC(=O)Nc1cc(-c2nccc(-c3cc(NC(=O)NCCC4(C)CC4)cnc3C)n2)ccn1 [Example 135]
5.00 to 6.00	< 6.00	5.00 to 6.00	≥ 7.00	COC(=O)Nc1cc(-c2nccc(-c3cc(NC(=O)NCCC4(OC)CC4)c(F)cc3C)n2)ccn1 [Example 146]
5.00 to 6.00	< 6.00	5.00 to 6.00	≥ 7.00	Cc1ncc(NC(=O)NCCC(C)(C)F)cc1-c1nccc(-c2ccnc(NC(=O)C3CC3)c2)n1 [Example 130]
5.00 to 6.00	< 6.00	5.00 to 6.00	≥ 7.00	COC(=O)Nc1cc(-c2ccnc(-c3cc(NC(=O)NCCC(C)(C)OC)c(F)cc3C)n2)ccn1 [Example 171]
5.00 to 6.00	6.30 to 7.00	6.30 to 7.00	≥ 7.00	COC1(CCNC(=O)Nc2cc(-c3ccnc(-c4ccnc(NC(=O)C5CC5)c4)n3)c(C)cc2F)CC1 [Example 117]
5.00 to 6.00	6.00 to 6.30	6.00 to 6.30	≥ 7.00	Cc1cc(F)c(NC(=O)NCCC2(C)CC2)cc1-c1ccnc(-c2ccnc(NC(=O)C3CC3)c2)c1 [Example 134]
6.30 to 7.00	< 6.00	6.00 to 6.30	≥ 7.00	COC(=O)Nc1cc(-c2cc(-c3cc(NC(=O)NCCC(C)C)c(F)cc3C)cc(OCCO)n2)ccn1 [Example 115]
